Measured values reported in US11332459B2 (TEIJIN PHARMA LIMITED, priority 2017, dated 2022).
Where a name gives a salt, the structure may show the parent alone.

Biological target: T1, human TRPC6 (Homo sapiens, UniProt Q9Y210)
T1 construct: expressed in transfected cells
T1 sequence (Q9Y210 1-931): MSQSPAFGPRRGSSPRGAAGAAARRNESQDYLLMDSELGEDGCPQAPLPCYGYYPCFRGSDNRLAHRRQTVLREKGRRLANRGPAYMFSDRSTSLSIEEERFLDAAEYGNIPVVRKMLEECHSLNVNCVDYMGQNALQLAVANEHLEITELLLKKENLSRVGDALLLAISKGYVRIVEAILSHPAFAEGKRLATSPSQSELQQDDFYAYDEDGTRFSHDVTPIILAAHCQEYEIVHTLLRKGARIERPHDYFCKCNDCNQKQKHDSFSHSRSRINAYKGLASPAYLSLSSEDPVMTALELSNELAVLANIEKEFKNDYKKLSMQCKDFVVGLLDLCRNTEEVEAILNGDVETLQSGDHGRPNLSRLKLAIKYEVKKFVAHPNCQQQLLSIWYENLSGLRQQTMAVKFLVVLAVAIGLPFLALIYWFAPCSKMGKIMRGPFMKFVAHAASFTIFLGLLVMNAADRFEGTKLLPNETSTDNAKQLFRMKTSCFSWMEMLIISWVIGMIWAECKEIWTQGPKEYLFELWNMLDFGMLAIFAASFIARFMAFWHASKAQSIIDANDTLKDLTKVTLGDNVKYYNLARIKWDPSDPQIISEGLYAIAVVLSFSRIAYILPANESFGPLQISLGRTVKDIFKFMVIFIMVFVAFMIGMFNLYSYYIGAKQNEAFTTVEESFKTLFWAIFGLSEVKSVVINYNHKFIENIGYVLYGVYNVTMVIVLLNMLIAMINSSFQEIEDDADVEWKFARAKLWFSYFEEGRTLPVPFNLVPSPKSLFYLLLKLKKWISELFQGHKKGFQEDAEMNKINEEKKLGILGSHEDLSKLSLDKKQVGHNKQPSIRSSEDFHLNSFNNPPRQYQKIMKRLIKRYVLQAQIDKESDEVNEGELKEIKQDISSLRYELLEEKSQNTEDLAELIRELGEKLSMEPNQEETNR
Experiment: TRPC6 calcium flux assay (FLIPR, OAG-stimulated calcium influx)
Format: cell-based
Conditions: HEK293 cells stably transfected with human TRPC6, read-out: hTRPC6 Potency
Procedure, shortened: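 IC50 derived by plotting background-corrected peak fluorescence (180 s window, normalized to OAG-triggered signal vs buffer) against dose. Stable human TRPC6 HEK293 line was dye-loaded, exposed to compound 25 min, then challenged with 50 uM final OAG in 2 mM Ca2+ HEPES buffer pH 7.2, 0.5% DMSO.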

| SMILES | IC50 [nM] |
| --- | --- |
| N#Cc1ccc(Cn2c(N3CC4CCC(N)C4C3)nc3ccccc32)cc1 (stereo not drawn) [Example 169, 4-((2-(4-aminohexahydrocyclopenta[c]pyrrol-2(1H)-yl)-1H-benzo[d]imidazol-1-yl)methyl)benzonitrile] | 14.2 |
| N#Cc1ccc(Cn2c(N3CC[C@H](O)[C@@H](N)C3)nc3ccccc32)nc1 [Example 96, 6-((2-((3S,4S)-3-amino-4-hydroxypiperidin-1-yl)-1H-benzo[d]imidazol-1-yl)methyl)nicotinonitrile] | 134 |
| N#Cc1ccc2c(c1)nc(N1CC[C@@H](F)[C@H](N)C1)n2Cc1ncc(F)cn1 [Example 197, 2-((3R,4R)-3-amino-4-fluoropiperidin-1-yl)-1-((5-fluoropyrimidin-2-yl)methyl)-1H-benzo[d]imidazole-5-carbonitrile] | 256 |
| N[C@@H]1CN(c2nc3c(F)cc(F)cc3n2Cc2ncc(Cl)cn2)CC[C@H]1F [Example 258, (3R,4R)-1-(1-((5-chloro-2-pyrimidinyl)methyl)-4,6-difluoro-1H-benzimidazol-2-yl)-4-fluoro-3-piperidinamine] | 0.288 |
| C[C@@H](c1ccc(C#N)cc1)n1c(N2CCC[C@H](N)C2)nc2ccccc21 [Example 314, 4-((S)-1-(2-((S)-3-aminopiperidin-1-yl)-1H-benzo[d]imidazol-1-yl)ethyl)benzonitrile hydrochloride] | > 50000 |
| N#Cc1ccc(Cn2c(N3CC[C@@H](F)[C@H](N)C3)nc3ncc(Cl)cc32)nc1 [Example 93, 6-((2-((3R,4R)-3-amino-4-fluoropiperidin-1-yl)-6-chloro-1H-imidazo[4,5-b]pyridin-1-yl)methyl)nicotinonitrile] | 6.85 |
| Cc1ccc2nc(N3CC[C@@H](F)[C@H](N)C3)n(Cc3ccc(C#N)cn3)c2c1 [Example 111, 6-((2-((3R,4R)-3-amino-4-fluoro-1-piperidinyl)-6-methyl-1H-benzimidazol-1-yl)methyl)-3-pyridinecarbonitrile] | 0.787 |
| N[C@@H]1CN(c2nc3cc(F)c(F)cc3n2[C@H]2CCN(c3ccc(Cl)cc3)C2=O)CC[C@H]1F [Example 247, (S)-3-(2-((3R,4R)-3-amino-4-fluoropiperidin-1-yl)-5,6-difluoro-1H-benzo[d]imidazol-1-yl)-1-(4-chlorophenyl)pyrrolidin-2-one] | 75.4 |
| N#Cc1ccc2c(c1)nc(N1CC[C@@H](F)[C@H](N)C1)n2Cc1ncc(Cl)cn1 [Example 198] | 71.2 |
| N#Cc1ccc(Cn2c(N3CC[C@@H](F)[C@H](N)C3)nc3cc(C(F)(F)F)c(Cl)cc32)nc1 [Example 126, 6-((2-((3R,4R)-3-amino-4-fluoro-1-piperidinyl)-6-chloro-5-(trifluoromethyl)-1H-benzimidazol-1-yl)methyl)-3-pyridinecarbonitrile] | 0.48 |
| N#Cc1ccc2c(c1)CC[C@H]2n1c(N2CC[C@@H](F)[C@H](N)C2)nc2ccccc21 [Example 231, (R)-1-(2-((3R,4R)-3-amino-4-fluoropiperidin-1-yl)-1H-benzo[d]imidazol-1-yl)-2,3-dihydro-1H-indene-5-carbonitrile hydrochloride] | 737 |
| N#Cc1cnc(Cn2c(N3CCC(F)(F)[C@H](N)C3)nc3ccc(Cl)cc32)cn1 [Example 233, (R)-5-((2-(3-amino-4,4-difluoropiperidin-1-yl)-6-chloro-1H-benzo[d]imidazol-1-yl)methyl)pyrazine-2-carbonitrile] | 1.47 |
| N#Cc1ccc(Cn2c(N3CCC[C@H](N)C3)nc3cc(Cl)ccc32)nc1 [Example 2, (S)-6-((2-(3-aminopiperidin-1-yl)-5-chloro-1H-benzo[d]imidazol-1-yl)methyl)nicotinonitrile] | 3.2 |
| N[C@@H]1CN(c2nc3cc(F)ccc3n2Cc2ncc(Cl)cn2)CC[C@H]1F [Example 290, (3R,4R)-1-(1-((5-chloropyrimidin-2-yl)methyl)-5-fluoro-1H-benzo[d]imidazol-2-yl)-4-fluoropiperidin-3-amine] | 1970 |
| N#Cc1ccc(Cn2c(N3CC[C@@H](F)[C@H](N)C3)nc3c(F)cc(F)cc32)nc1 [Example 63, 6-((2-((3R,4R)-3-amino-4-fluoropiperidin-1-yl)-4,6-difluoro-1H-benzo[d]imidazol-1-yl)methyl)nicotinonitrile] | 0.389 |
| N#Cc1ccc(Cn2c(N3CC[C@@H]4CCN[C@@H]4C3)nc3ccccc32)nc1 [Example 24, 6-((2-((3aS,7aS)-hexahydro-1H-pyrrolo[2,3-c]pyridin-6(2H)-yl)-1H-benzo[d]imidazol-1-yl)methyl)nicotinonitrile] | 145 |

Continued, values first:

| IC50 [nM] | SMILES |
| --- | --- |
| 219 | N[C@@H]1CN(c2nc3cc(Br)ccc3n2CC(=O)N2CCC2)CC[C@H]1F [Example 470, 2-(2-((3R,4R)-3-amino-4-fluoropiperidin-1-yl)-5-bromo-1H-benzo[d]imidazol-1-yl)-1-(azetidin-1-yl)ethan-1-one] |
| 6.69 | Cc1nnc(Cn2c(N3CC[C@@H](F)[C@H](N)C3)nc3cc(F)c(F)cc32)s1 [Example 553, (3R,4R)-1-(5,6-difluoro-1-((5-methyl-1,3,4-thiadiazol-2-yl)methyl)-1H-benzo[d]imidazol-2-yl)-4-fluoropiperidin-3-amine] |
| 1050 | N[C@@H]1CN(c2nc3cc(C(F)(F)F)ccc3n2CC(=O)N2CCOCC2)CC[C@@H]1F [Example 478, 2-(2-((3R,4S)-3-amino-4-fluoropiperidin-1-yl)-5-(trifluoromethyl)-1H-benzo[d]imidazol-1-yl)-1-morpholinoethan-1-one] |
| 48.3 | N#CC1(F)CCN(C(=O)Cn2c(N3CC[C@@H](F)[C@H](N)C3)nc3cc(F)c(F)cc32)C1 (stereo partly drawn) [Example 618, 1-(2-(2-((3R,4R)-3-amino-4-fluoropiperidin-1-yl)-5,6-difluoro-1H-benzo[d]imidazol-1-yl)acetyl)-3-fluoropyrrolidine-3-carbonitrile] |
| 274 | N#Cc1ccc(Cn2c(N3CC[C@@H](F)[C@H](N)C3)nc3ncccc32)cc1 (single isomer, unassigned) [Example 415] |
| 10.9 | CN(CC(F)(F)F)C(=O)Cn1c(N2CC[C@@H](F)[C@H](N)C2)nc2ccc(C(F)(F)F)cc21 [Example 554, 2-(2-((3R,4R)-3-amino-4-fluoropiperidin-1-yl)-6-(trifluoromethyl)-1H-benzo[d]imidazol-1-yl)-N-methyl-N-(2,2,2-trifluoroethyl)acetamide] |
| 24.5 | N[C@@H]1CN(c2nc3cc(F)c(F)cc3n2Cc2ccc(F)c(F)c2)CC[C@H]1F [Example 357, (3R,4R)-1-(1-(3,4-difluorobenzyl)-5,6-difluoro-1H-benzimidazol-2-yl)-4-fluoro-3-piperidinamine] |
| > 3750 | N[C@@H]1CN(c2nc3cc(F)c(F)cc3n2CC(=O)N2CCN3C(=O)OCC3C2)CC[C@H]1F (stereo partly drawn) [Example 659, 7-(2-(2-((3R,4R)-3-amino-4-fluoropiperidin-1-yl)-5,6-difluoro-1H-benzo[d]imidazol-1-yl)acetyl)tetrahydro-1H-oxazolo[3,4-a]pyrazin-3(5H)-one] |
| 221 | N#Cc1ccc(Cn2c(N3CC[C@@H](F)[C@H](N)C3)nc3ccncc32)cc1 [Example 413, 4-((2-((3R,4R)-3-amino-4-fluoropiperidin-1-yl)-3H-imidazo[4,5-c]pyridin-3-yl)methyl)benzonitrile] |
| 4260 | Cc1ccc(Cn2c(N3CCC[C@@H](N)C3)nc3ccccc32)cc1 [Example 386, (R)-1-(1-(4-methylbenzyl)-1H-benzo[d]imidazol-2-yl)piperidin-3-amine] |
| 232 | N#Cc1cccc(Cn2c(N3CC[C@@H](F)[C@H](N)C3)nc3cc(F)c(F)cc32)c1 [Example 366, 3-((2-((3R,4R)-3-amino-4-fluoro-1-piperidinyl)-5,6-difluoro-1H-benzimidazol-1-yl)methyl)benzonitrile] |
| 2850 | N[C@@H]1CN(c2nc3cc(F)c(F)cc3n2CC(=O)N(C2CC2)C2CCS(=O)(=O)C2)CC[C@H]1F (stereo partly drawn) [Example 526, 2-(2-((3R,4R)-3-amino-4-fluoropiperidin-1-yl)-5,6-difluoro-1H-benzo[d]imidazol-1-yl)-N-cyclopropyl-N-(1,1-dioxidotetrahydrothiophen-3-yl)acetamide] |
| 16.3 | N#Cc1ccc(Cn2c(N3CC[C@@H](F)[C@H](N)C3)nc3nc(C(F)(F)F)ccc32)nc1 [Example 458, 6-((2-((3R,4R)-3-amino-4-fluoropiperidin-1-yl)-5-(trifluoromethyl)-1H-imidazo[4,5-b]pyridin-1-yl)methyl)nicotinonitrile] |
| 304 | CN(CC(F)(F)F)C(=O)Cn1c(N2CC[C@@H](F)[C@H](N)C2)nc2cc(F)c(F)cc21 (single isomer, unassigned) [Example 635] |
